Data as given in paper PMC6670175 (Virology Journal, 2019).
Where “and” joins values, the source holds several entries; their conditions need not be identical. Equal values may be shown once. Read-outs that look alike come from different tables or passages of the source. Ends that are not written are not given here.

Columns and labels:
PRV Ea strain = assay type: cell-based, pseudorabies virus
PRV-HNXX = assay type: cell-based, pseudorabies virus; details: n = 3
PRV-Ea [1] = test system: PRV-Ea
RV TM-a strain = assay type: cell-based, rotavirus; details: n = 3
PRV-Ea [2] = assay type: cell-based, pseudorabies virus
TGEV WH-1 strain = assay type: cell-based, transmissible gastroenteritis virus; details: for residual infectivity: n = 3
PEDV YNKM strain = assay type: cell-based, porcine epidemic diarrhea virus; details: for residual infectivity: n = 3
[3] = test system: PRV-152 (modified Bartha strain); assay type: cell-based, pseudorabies virus; details: n = 3
PRV-Ea [4] = test system: PRV-Ea; remark: listed apart in the source
PRRSV YA isolate = assay type: cell-based, porcine reproductive and respiratory syndrome virus

Compound | antiviral activity against PRV (in words) (PRV Ea strain) | residual infectivity (PRV Ea strain; n = 3) | 50% toxic concentration (TC50) (PK-15 cells; 48 h) [µg/mL] | inhibitory activity against PRV HNXX (in words) (PRV-HNXX) | inhibition of PRV particles (in words) (PRV-Ea [1]) | residual infectivity (RV TM-a strain) | decrease in the residual infectivity (PRV Ea strain) | inhibitory effect on PRV, post-infection (curative) (PRV-Ea [2]) | inhibitory effect on PRV, pre-infection (prophylactic) (PRV-Ea [2]) | residual infectivity (TGEV WH-1 strain) [%] | residual infectivity (PEDV YNKM strain) | inhibitory activity against PRV 152 (in words) [3] | 50% effective concentration (EC50) (PRV-Ea [1]; 1 h) [µg/mL] | also measured
CC[C@H](C)[C@H](N)C(=O)N[C@@H](CC(C)C)C(=O)N1CCC[C@H]1C(=O)N[C@@H](Cc1c[nH]c2ccccc12)C(=O)N[C@@H](CCCCN)C(=O)N[C@@H](Cc1c[nH]c2ccccc12)C(=O)N1CCC[C@H]1C(=O)N[C@@H](Cc1c[nH]c2ccccc12)C(=O)N[C@@H](Cc1c[nH]c2ccccc12)C(=O)N1CCC[C@H]1C(=O)N[C@@H](Cc1c[nH]c2ccccc12)C(=O)N[C@@H](CCCNC(=N)N)C(=O)N[C@@H](CCCNC(=N)N)C(N)=O [indolicidin] | mild antiviral activity | 34.6% | 110.2 | – | – | – | – | – | – | – | – | – | – | –
FFHHIFRGIVHVGKTIHRLVTG [piscidin, piscidin 1] | – | around 2.3% | – | displayed inhibitory activities | inhibit most of the PRV particles | 7.4% | more than 30 folds | No inhibitory effect | No inhibitory effect | 41.5 | lower than 50% | displayed inhibitory activities | – | 50% effective concentration (EC50) (PRV-Ea [1]; n = 3): 0.23 µg/mL; 50% toxic concentration (TC50) (PK-15 cells): 65.2 µg/mL; brain pathology (H&E) (PRV-Ea [4]; mouse, in vivo): no specific symptom; clinical signs, peptide alone (PRV-Ea [4]; mouse, in vivo): remained asymptomatic; clinical symptoms versus PRV infected mice (PRV-Ea [4]; mouse, in vivo): symptoms appeared later and not so severe; outcome after re-challenge (PRV-Ea [4]; mouse, in vivo): all died; protection against PRV infection (in words) (PRV-Ea [4]; mouse, in vivo): obviously protected; survival and behaviour after peptide alone (PRV-Ea [4]; mouse, in vivo): All mice survived and behaved normally; survival rate of mice (PRV-Ea [4]; mouse, in vivo): 90%; survival rates at the end of the experiment (PRV-Ea [4]; mouse, in vivo): 30%; mice with severe neurological symptoms euthanized (PRV-Ea [4]; n = 10): 6 and 5 and 7
FKCRRWQWRMKKLGAPSITCVRRAF [lactoferricin B] | mild antiviral activity | – | – | – | – | – | – | – | – | 54.1 | – | – | – | cytotoxic activity at maximum concentration (PK-15 cells): did not exhibit obvious cytotoxic activity
GLFGVLAKVAAHVVPAIAEHF-NH2 (C-terminus assumed) [maculatin, maculatin 1.1] | – | 10.1% and 10.11% | 76.6 | displayed inhibitory activities | inhibit most of the PRV particles | 43.4% | – | No inhibitory effect | No inhibitory effect | – | – | displayed inhibitory activities | 1.09 | residual infectivity (PRV Ea strain): 0.0017%; activity against TGEV (in words) (TGEV WH-1 strain): limited activity; activity against PRRSV (in words) (PRRSV YA isolate): limited activity; activity against PEDV (in words) (PEDV YNKM strain): limited activity
GLLSVLGSVAKHVLPHVVPVIAEHL-NH2 (C-terminus assumed) [caerin, caerin 1.1] | – | around 2.3% | 67.8 | displayed inhibitory activities | inhibit most of the PRV particles | lower than 50% | more than 30 folds | No inhibitory effect | No inhibitory effect | – | 0.2% | displayed inhibitory activities | 2.63 | residual infectivity (PRRSV YA isolate; n = 3): 41.1%
